Test results taken from patent publication US20260374756A1, “HETEROCYCLIC COMPOUNDS AS INHIBITORS OF MONOACYLGLYCEROL LIPASE (MAGL)” (Hoffmann-La Roche Inc., priority 2022, published 2026).

target: T1, hMAGL (Homo sapiens, UniProt Q99685); test: 2-AG assay: MAGL inhibition, hydrolysis of 2-arachidonoylglycerol to arachidonic acid followed by mass spectrometry; type: biochemical
T1 sequence (Q99685 1-303): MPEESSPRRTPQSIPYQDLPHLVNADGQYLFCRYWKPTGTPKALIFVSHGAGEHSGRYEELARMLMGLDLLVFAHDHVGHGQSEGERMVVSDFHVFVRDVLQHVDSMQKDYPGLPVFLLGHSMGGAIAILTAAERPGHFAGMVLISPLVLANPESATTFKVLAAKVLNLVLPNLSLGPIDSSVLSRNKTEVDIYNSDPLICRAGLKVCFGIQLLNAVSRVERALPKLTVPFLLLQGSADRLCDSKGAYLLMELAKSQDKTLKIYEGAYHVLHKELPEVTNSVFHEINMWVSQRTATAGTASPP
Procedure: Compounds of formula (I) were profiled for MAGL inhibitory activity by determining the enzymatic activity by following the hydrolysis of the natural substrate 2-arachidonoylglycerol (2-AG) resulting in arachidonic acid, which can be followed by mass spectrometry. This assay is hereinafter abbreviated “2-AG assay”. The 2-AG assay was carried out in 384 well polypropylene assay plates. […] Compound dilutions were added to MAGL protein in assay buffer (50 mM TRIS, 1 mM EDTA, 0.01% (v/v) Tween-20, 2.5% (v/v) DMSO). After shaking, the plate was incubated for 15 min at RT. To start the reaction, 2-arachidonoylglycerol in assay buffer was added. The final concentrations in the assay was […] for MAGL protein and 8 μM 2-arachidonoylglyerol. After shaking and 30 min incubation at RT, the reaction was quenched by the addition of two assay volumes of acetonitrile containing 4 μM of d8-arachidonic acid. The amount of arachidonic acid formed was traced by an online SPE system (Agilent Rapidfire) coupled to a triple quadrupole mass spectrometer. A C18 SPE cartridge (Agilent G9205A) was used in an acetonitrile/water liquid setup. […] The activity of the compounds was calculated based on the ratio of intensities [arachidonic acid/d8-arachidonic acid].

| IC50 [nM] | Compound |
| --- | --- |
| 9.41 | O=C(N1CC2(CC(Cc3n[nH]c(C4CC4)n3)C2)C1)N1CC2(CC(n3cnc(C(F)(F)F)n3)C2)C1 [Example 303, [6-[(5-cyclopropyl-1H-1,2,4-triazol-3-yl)methyl]-2-azaspiro[3.3]heptan-2-yl]-[6-[3-(trifluoromethyl)-1,2,4-triazol-1-yl]-2-azaspiro[3.3]heptan-2-yl]methanone] |
| 0.12 | O=C(N1CC2(CC(Cc3cn[nH]c3C(F)(F)F)C2)C1)N1CC2(CC(n3cnc(C(F)(F)F)n3)C2)C1 [Example 119, [6-[[5-(trifluoromethyl)-1H-pyrazol-4-yl]methyl]-2-azaspiro[3.3]heptan-2-yl]-[6-[3-(trifluoromethyl)-1,2,4-triazol-1-yl]-2-azaspiro[3.3]heptan-2-yl]methanone] |
| 1.82 | O=C(N1CC2(CC(Cc3n[nH]c(C4CC4)n3)C2)C1)N1CC2(CC(n3cnc(C4CC4)n3)C2)C1 [Example 304, [6-(3-cyclopropyl-1,2,4-triazol-1-yl)-2-azaspiro[3.3]heptan-2-yl]-[6-[(5-cyclopropyl-1H-1,2,4-triazol-3-yl)methyl]-2-azaspiro[3.3]heptan-2-yl]methanone] |
| 84.1 | O=C(N1CC2(CC(n3cnc(C4(O)CC4)n3)C2)C1)N1CC2(CN(Cc3ncc(C(F)F)s3)C2)C1 [Example 186] |
| 79.8 | O=C(N1CC2(CC(n3cnc(C4CC4)n3)C2)C1)N1CC2(CN(Cc3ncc(C(F)(F)F)[nH]3)C2)C1 [Example 232, [6-(3-cyclopropyl-1,2,4-triazol-1-yl)-2-azaspiro[3.3]heptan-2-yl]-[6-[[5-(trifluoromethyl)-1H-imidazol-2-yl]methyl]-2,6-diazaspiro[3.3]heptan-2-yl]methanone] |
| 42.9 | O=C(N1CC2(CCN(Cc3cc(C(F)(F)F)sn3)CC2)C1)N1CC2(CC(n3cnc(C4(O)CC4)n3)C2)C1 [Example 48, [6-[3-(1-hydroxycyclopropyl)-1,2,4-triazol-1-yl]-2-azaspiro[3.3]heptan-2-yl]-[7-[[5-(trifluoromethyl)isothiazol-3-yl]methyl]-2,7-diazaspiro[3.5]nonan-2-yl]methanone] |
| 6.35 | O=C(N1CC2(CC(Cc3cnn(C(F)(F)F)c3)C2)C1)N1CC2(CC(n3cnc(C4(O)CC4)n3)C2)C1 [Example 14] |
| 2 | O=C(N1CC2(CC(n3cnc(C4CC4)n3)C2)C1)N1CC2(CN(Cc3sncc3C(F)(F)F)C2)C1 [Example 179, [6-(3-cyclopropyl-1,2,4-triazol-1-yl)-2-azaspiro[3.3]heptan-2-yl]-[6-[[4-(trifluoromethyl)isothiazol-5-yl]methyl]-2,6-diazaspiro[3.3]heptan-2-yl]methanone] |
| 167 | O=C(N1CC2(CC(n3cnc(C(F)(F)F)n3)C2)C1)N1CC2(CN(Cc3ccnn3CC(F)F)C2)C1 [Example 260, [6-[[2-(2,2-difluoroethyl)pyrazol-3-yl]methyl]-2,6-diazaspiro[3.3]heptan-2-yl]-[6-[3-(trifluoromethyl)-1,2,4-triazol-1-yl]-2-azaspiro[3.3]heptan-2-yl]methanone] |
| 2310 | O=C(N1CC2(CC(n3cnc(C(F)(F)F)n3)C2)C1)N1CC2(CN(Cc3cc[nH]n3)C2)C1 [Example 284, [6-(1H-pyrazol-3-ylmethyl)-2,6-diazaspiro[3.3]heptan-2-yl]-[6-[3-(trifluoromethyl)-1,2,4-triazol-1-yl]-2-azaspiro[3.3]heptan-2-yl]methanone] |
| 328 | O=C(N1CC2(CC(n3cnc(C4CC4)n3)C2)C1)N1CC2(CN(Cc3cnn(CC(F)(F)F)c3)C2)C1 [Example 110, [6-(3-cyclopropyl-1,2,4-triazol-1-yl)-2-azaspiro[3.3]heptan-2-yl]-[6-[[1-(2,2,2-trifluoroethyl)pyrazol-4-yl]methyl]-2,6-diazaspiro[3.3]heptan-2-yl]methanone] |
| 3.7 | O=C(N1CC2(CC(Cc3ncn(CC(F)(F)F)n3)C2)C1)N1CC2(CC(n3cnc(C4CC4)n3)C2)C1 [Example 339, [6-(3-cyclopropyl-1,2,4-triazol-1-yl)-2-azaspiro[3.3]heptan-2-yl]-[6-[[1-(2,2,2-trifluoroethyl)-1,2,4-triazol-3-yl]methyl]-2-azaspiro[3.3]heptan-2-yl]methanone] |
| 3.62 | O=C(N1CC2(CC(Cc3cnn(CC(F)(F)F)n3)C2)C1)N1CC2(CC(n3cnc(C(F)(F)F)n3)C2)C1 [Example 340, [6-[[2-(2,2,2-trifluoroethyl)triazol-4-yl]methyl]-2-azaspiro[3.3]heptan-2-yl]-[6-[3-(trifluoromethyl)-1,2,4-triazol-1-yl]-2-azaspiro[3.3]heptan-2-yl]methanone] |
| 13.1 | O=C(N1CC2(CC(n3cnc(C4CC4)n3)C2)C1)N1CC2(CN(Cc3cnc(C(F)(F)F)o3)C2)C1 [Example 212, [6-(3-cyclopropyl-1,2,4-triazol-1-yl)-2-azaspiro[3.3]heptan-2-yl]-[6-[[2-(trifluoromethyl)oxazol-5-yl]methyl]-2,6-diazaspiro[3.3]heptan-2-yl]methanone] |
| 96.5 | Cn1nnc(CN2CC3(C2)CN(C(=O)N2CC4(CC(n5cnc(C(F)(F)F)n5)C4)C2)C3)c1C(F)(F)F [Example 243, [6-[[1-methyl-5-(trifluoromethyl)triazol-4-yl]methyl]-2,6-diazaspiro[3.3]heptan-2-yl]-[6-[3-(trifluoromethyl)-1,2,4-triazol-1-yl]-2-azaspiro[3.3]heptan-2-yl]methanone] |
| 2.2 | Cn1ncc(C(F)(F)F)c1CN1CC2(C1)CN(C(=O)N1CC3(CC(n4cnc(C5CC5)n4)C3)C1)C2 [Example 159, [6-(3-cyclopropyl-1,2,4-triazol-1-yl)-2-azaspiro[3.3]heptan-2-yl]-[6-[[2-methyl-4-(trifluoromethyl)pyrazol-3-yl]methyl]-2,6-diazaspiro[3.3]heptan-2-yl]methanone] |
| 68.7 | O=C(N1CC2(CC(n3cnc(C(F)(F)F)n3)C2)C1)N1CC2(CN(Cc3nccn3C(F)(F)F)C2)C1 [Example 235, [6-[[1-(trifluoromethyl)imidazol-2-yl]methyl]-2,6-diazaspiro[3.3]heptan-2-yl]-[6-[3-(trifluoromethyl)-1,2,4-triazol-1-yl]-2-azaspiro[3.3]heptan-2-yl]methanone] |
| 0.12 | O=C(N1CC2(CC(Cc3cc(C(F)(F)F)n[nH]3)C2)C1)N1CC2(CC(n3cnc(C4CC4)n3)C2)C1 [Example 300, [6-(3-cyclopropyl-1,2,4-triazol-1-yl)-2-azaspiro[3.3]heptan-2-yl]-[6-[[3-(trifluoromethyl)-1H-pyrazol-5-yl]methyl]-2-azaspiro[3.3]heptan-2-yl]methanone] |
| 1.11 | O=C(N1CC2(CC(Cc3cc(C(F)F)n[nH]3)C2)C1)N1CC2(CC(n3cnc(C(F)(F)F)n3)C2)C1 [Example 295, [6-[[3-(difluoromethyl)-1H-pyrazol-5-yl]methyl]-2-azaspiro[3.3]heptan-2-yl]-[6-[3-(trifluoromethyl)-1,2,4-triazol-1-yl]-2-azaspiro[3.3]heptan-2-yl]methanone] |
| 0.12 | O=C(N1CC2(CC(Cc3cc(C(F)(F)F)n[nH]3)C2)C1)N1CC2(CC(c3cc(C4CC4)n[nH]3)C2)C1 [Example 297, [6-(3-cyclopropyl-1H-pyrazol-5-yl)-2-azaspiro[3.3]heptan-2-yl]-[6-[[3-(trifluoromethyl)-1H-pyrazol-5-yl]methyl]-2-azaspiro[3.3]heptan-2-yl]methanone] |
| 11.8 | O=C(N1CC2(CC(Cc3ncn(CC(F)(F)F)n3)C2)C1)N1CC2(CC(n3cnc(C(F)(F)F)n3)C2)C1 [Example 331, [6-[[1-(2,2,2-trifluoroethyl)-1,2,4-triazol-3-yl]methyl]-2-azaspiro[3.3]heptan-2-yl]-[6-[3-(trifluoromethyl)-1,2,4-triazol-1-yl]-2-azaspiro[3.3]heptan-2-yl]methanone] |
| 0.92 | O=C(N1CC2(CC(Cc3cnn(CC(F)(F)F)n3)C2)C1)N1CC2(CC(n3cnc(C4CC4)n3)C2)C1 [Example 350, [6-(3-cyclopropyl-1,2,4-triazol-1-yl)-2-azaspiro[3.3]heptan-2-yl]-[6-[[2-(2,2,2-trifluoroethyl)triazol-4-yl]methyl]-2-azaspiro[3.3]heptan-2-yl]methanone] |
| 178 | O=C(N1CC2(CC(n3cnc(C(F)(F)F)n3)C2)C1)N1CC2(CN(Cc3ncoc3C(F)(F)F)C2)C1 [Example 220] |
| 15 | O=C(N1CC2(CC(n3cnc(C(F)(F)F)n3)C2)C1)N1CC2(CN(Cc3nc(C4(C(F)(F)F)CC4)no3)C2)C1 [Example 328, [6-[[3-[1-(trifluoromethyl)cyclopropyl]-1,2,4-oxadiazol-5-yl]methyl]-2,6-diazaspiro[3.3]heptan-2-yl]-[6-[3-(trifluoromethyl)-1,2,4-triazol-1-yl]-2-azaspiro[3.3]heptan-2-yl]methanone] |
| 20 | O=C(N1CC2(CC(c3cc(C4CC4)n[nH]3)C2)C1)N1CC2(CN(Cc3nc(C(F)(F)F)co3)C2)C1 [Example 215, [6-(3-cyclopropyl-1H-pyrazol-5-yl)-2-azaspiro[3.3]heptan-2-yl]-[6-[[4-(trifluoromethyl)oxazol-2-yl]methyl]-2,6-diazaspiro[3.3]heptan-2-yl]methanone] |
